# In article PMC8980233, “Differentiating the Neuropharmacological Properties of Nicotinic Acetylcholine Receptor-Activating Alkaloids” (Frontiers in Pharmacology, 2022):
# Where two headings read alike, the source gives them in different places.
# What was measured:
# C57Bl/6 mice = assay: SmartCube behavioral profiling; assay type: in vivo; conditions: single i.p. injection
# Text: The SmartCube^ ® system is a unique mouse behavior profiling system developed by PsychoGenics Inc. It extracts over 2000 spontaneous and challenge-induced behavioral features during a session ([Alexandrov et al., 2015]; [Alexandrov et al., 2016]). The recorded behavioral parameters are then compared against the behavioral profiles of marketed reference compounds in the database, and the test compounds are classified into known drug classes using PsychoGenics’ proprietary bioinformatics algorithms. In brief, mice were i. p. injected with vehicle or test compound at 10 ml/kg body weight and placed in the SmartCube^ ® arena (24 cm × 25 cm) 15 min later. Spontaneous and stimulus-induced behaviors of mice were recorded using force sensors distributed throughout the arena during a 45-min test session. In addition, three high-resolution video cameras provided a constant 3-dimensional (3D) view of the mouse behavior in the SmartCube^ ® arena throughout the testing period. The bedding was vacuumed, and the arena was cleaned with NOLVASAN^ ® solution between each run. Data from the SmartCube^ ® test were processed using PsychoGenics’ proprietary Computer Vision feature extraction, Bayesian probabilistic density models, and data mining algorithms, trained on a large library of reference compounds with known therapeutic indications to predict the underlying class of each test compound ([Alexandrov et al., 2015]; [Alexandrov et al., 2016]). Twelve mice were tested per condition. Mice were terminated after the completion of the SmartCube^ ® test.
# The doses were calculated based on the free base molecular weight. The doses were selected based on the tolerability test results.
# α6/3β2β3 nAChR = α6/3β2β3 nAChR (Homo sapiens, UniProt P17787+P32297+Q15825); assay: nAChR functional assay, automated patch-clamp; assay type: cell-based
# Protocol: (§1) Electrophysiological responses were recorded using an automated patch-clamp Patchliner Octo® system (Nanion Technologies, Munich, Germany) equipped with two EPC-10 Quadro patch-clamp amplifiers (HEKA Elektronik, Lambrecht, Germany) as described by ([Alijevic et al., 2020]). In brief, Chinese hamster ovary (CHO) or human embryonic kidney-293 (HEK-293) cells stably expressing human nAChRs (Charles River Laboratories, Wilmington, MA, United States) were maintained in DMEM/F12 medium (Gibco, Thermo Fisher Scientific, Waltham, MA, United States) supplemented with 10% heat-inactivated fetal bovine serum (FBS; Gibco) and penicillin–streptomycin (100 U/mL and 0.1 mg/ml, respectively; Sigma-Aldrich, St. Louis, MO, United States) at 37°C in 5% CO2 and 70% humidity. The following selection antibiotics were used for the cell lines: G418 (0.25 mg/ml; Sigma-Aldrich) and Zeocin^TM (0.4 mg/ml; InvivoGen, San Diego, CA, United States) for α7/Ric3 nAChR and α3β4 nAChR cells; puromycin (8 μg/ml; InvivoGen) and hygromycin B (0.4 mg/ml; Gibco) for α4β2 nAChR cells; and G418 (0.5 mg/ml), puromycin (0.25 μg/ml), and hygromycin B (0.02 mg/ml) for α6/3β2/β3 nAChR cells. The cells were used for characterizing nAChR pharmacology, because no endogenous ionotropic nicotinic receptors are found ([Roncarati et al., 2008]; [Papke and Smith-Maxwell, 2009]; [Kirsch et al., 2016]; [Scheffel et al., 2018]). The subunit distributions in the cells have been previously described ([Alijevic et al., 2020]). The human nAChRs were selected due to the lack of commercially available nAChR expression systems for mouse or zebrafish. The translatability of findings between zebrafish and human nAChR activities have been previously reported ([Papke and Smith-Maxwell, 2009]; [Papke et al., 2012]; [Alijevic et al., 2020]).
# (§2) On the day of the experiment, nAChR-expressing cells were suspended in extracellular solution (in mM: 140 NaCl, 4KCl, one MgCl2, two CaCl2, five glucose, and 10 HEPES, adjusted to pH 7.4 with NaOH (298 mOsmol)), then placed in the Patchliner Octo® system. The internal solution contained in mM: 50 KCl, 60 kF, 10 NaCl, 20 EGTA, and 10 HEPES, adjusted to pH 7.2 with KOH (285 mOsmol). […] Data were analyzed using the Patchmaster software and corrected for leak current. The data acceptance criteria were as follows: seal resistance >100 MΩ; seal resistance loss variation <50%; access resistance <20 MΩ; and minimum current amplitude elicited by maximal effect concentration acetylcholine >50 pA. Offline data analysis was performed in OpenOffice™ (v4.1.2; The Apache Software Foundation, Wakefield, MA, United States). Data are presented as mean ± S.D. All experiments were performed at room temperature (24°C) and repeated at least three times. Igor Pro (v6.2.2.2; WaveMetrics, Lake Oswego, OR, United States) or Prism (v8.2.1) were used for assessing the concentration–response curves.
# α4β2 nAChR = α4β2 nAChR (Homo sapiens, UniProt P17787+P43681); assay: nAChR functional assay, automated patch-clamp; assay type: cell-based
# Protocol: as §1, §2
# [1] = tested on: zebrafish (Danio rerio; strain AB); assay: Zebrafish novel tank test (NTT)
# Protocol: Adult male and female wild-type zebrafish were treated with the compounds for 20 min in a final volume of 50 ml in a 250-ml treatment beaker one fish at a time. The fish were briefly rinsed in fresh system water, and then immediately transferred to a trapezoidal tank (14.6 cm height x 5.5 cm width x 27.9 cm top length and x 23.6 cm bottom length) filled with 1.5 L system water. The behavior of the fish was monitored for the next 5 min by using the Noldus EthoVision XT system (Wageningen, Netherlands), with the camera placed approximately 1 m from the test tank. The part of the tank filled with water (11.5 cm height) was virtually divided into top, center, and bottom of equal heights (approximately 3.8 cm per segment) for the analysis. The average time spent at the top and bottom portions of the tank was analyzed to determine the anxiety-like behavior of fish. The average total distance travelled and freezing time were calculated to determine the effects of the compounds on the general behavior of fish. Freezing was defined by a complete cessation of movement except for gills and eyes ([Kalueff et al., 2013]). A minimum of 12 fish (6 females and 6 males) per condition were used for the study. The experimenter was blind to the test conditions.
# If not, the dose was reduced until no obvious signs of tolerability problems were observed. […] The concentrations were calculated based on the free base molecular weight. Buspirone—a clinical anxiolytic drug used acutely and chronically to investigate the change in the anxiety-like behavior ([Maximino, et al., 2011]; [Maximino, et al., 2013])—was included as a positive control.
# [2] = 1, 3, and 10 mg/L, 20 min treatment
# [3] = only at the highest dose tested (10 mg/L)
# α4β2 nAChR, sequence (P43681 29-627 limits assumed): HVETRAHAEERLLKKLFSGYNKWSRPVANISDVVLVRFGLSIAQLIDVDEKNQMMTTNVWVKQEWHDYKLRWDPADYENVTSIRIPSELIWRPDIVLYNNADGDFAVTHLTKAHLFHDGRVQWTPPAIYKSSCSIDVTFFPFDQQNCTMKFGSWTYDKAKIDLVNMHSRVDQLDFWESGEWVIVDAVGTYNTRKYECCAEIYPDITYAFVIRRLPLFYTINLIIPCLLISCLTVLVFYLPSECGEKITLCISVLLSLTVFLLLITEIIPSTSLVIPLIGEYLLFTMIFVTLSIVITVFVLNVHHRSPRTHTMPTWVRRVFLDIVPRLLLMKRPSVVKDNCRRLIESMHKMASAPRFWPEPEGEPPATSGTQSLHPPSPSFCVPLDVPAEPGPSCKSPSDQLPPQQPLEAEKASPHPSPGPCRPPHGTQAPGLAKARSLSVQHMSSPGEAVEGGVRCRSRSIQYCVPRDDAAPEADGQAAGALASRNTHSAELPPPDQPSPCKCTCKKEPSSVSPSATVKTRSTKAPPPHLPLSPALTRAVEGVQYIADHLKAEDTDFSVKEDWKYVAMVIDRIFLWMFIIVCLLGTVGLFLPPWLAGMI
# α4β2 nAChR, sequence (P17787 26-502): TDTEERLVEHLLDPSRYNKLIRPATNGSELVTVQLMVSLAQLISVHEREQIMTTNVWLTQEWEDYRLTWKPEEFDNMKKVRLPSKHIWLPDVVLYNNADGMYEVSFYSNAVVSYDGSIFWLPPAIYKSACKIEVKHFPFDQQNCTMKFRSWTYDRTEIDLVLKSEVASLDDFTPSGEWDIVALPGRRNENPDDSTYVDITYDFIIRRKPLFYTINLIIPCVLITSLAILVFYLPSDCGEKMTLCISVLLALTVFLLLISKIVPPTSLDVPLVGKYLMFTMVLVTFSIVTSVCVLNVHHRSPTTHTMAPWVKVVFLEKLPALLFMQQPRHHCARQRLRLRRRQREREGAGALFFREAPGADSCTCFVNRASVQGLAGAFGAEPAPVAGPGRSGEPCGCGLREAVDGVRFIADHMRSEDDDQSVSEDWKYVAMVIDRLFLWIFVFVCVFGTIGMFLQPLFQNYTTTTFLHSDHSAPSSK
# α6/3β2β3 nAChR, sequence (Q15825+P32297 fused with the stated changes): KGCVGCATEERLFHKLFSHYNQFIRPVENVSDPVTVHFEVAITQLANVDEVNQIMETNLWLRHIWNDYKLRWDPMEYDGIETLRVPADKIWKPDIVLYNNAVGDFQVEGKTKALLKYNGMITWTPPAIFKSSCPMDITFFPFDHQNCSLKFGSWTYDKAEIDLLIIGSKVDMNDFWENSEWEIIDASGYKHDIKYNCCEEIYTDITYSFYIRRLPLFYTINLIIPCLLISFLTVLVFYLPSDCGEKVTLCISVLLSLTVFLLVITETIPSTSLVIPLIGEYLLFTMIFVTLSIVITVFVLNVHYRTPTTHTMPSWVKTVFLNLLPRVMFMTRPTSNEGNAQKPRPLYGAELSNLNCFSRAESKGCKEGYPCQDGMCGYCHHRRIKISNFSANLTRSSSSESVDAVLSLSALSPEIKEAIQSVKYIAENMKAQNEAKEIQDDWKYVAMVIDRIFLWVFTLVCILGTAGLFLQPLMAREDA
# α6/3β2β3 nAChR, sequence (P17787 26-502): as the sequence (P17787 26-502) above
# α6/3β2β3 nAChR, sequence (Q05901 25-458 partner limits assumed): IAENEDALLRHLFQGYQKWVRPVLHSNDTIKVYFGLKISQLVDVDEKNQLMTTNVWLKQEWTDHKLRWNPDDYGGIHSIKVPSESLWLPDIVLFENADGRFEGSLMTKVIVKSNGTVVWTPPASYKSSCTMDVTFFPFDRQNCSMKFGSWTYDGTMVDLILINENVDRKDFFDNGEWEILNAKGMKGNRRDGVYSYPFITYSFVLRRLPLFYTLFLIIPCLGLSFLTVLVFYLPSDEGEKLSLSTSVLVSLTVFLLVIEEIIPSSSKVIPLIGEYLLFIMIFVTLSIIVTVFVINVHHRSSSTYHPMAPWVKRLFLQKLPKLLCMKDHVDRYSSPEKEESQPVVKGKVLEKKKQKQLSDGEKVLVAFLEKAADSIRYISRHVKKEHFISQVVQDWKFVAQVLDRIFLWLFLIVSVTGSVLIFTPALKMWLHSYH
smiles,measurement,setting,value
"CN1CCC[C@H]1c1cccnc1 [Nicotine, (-)-Nicotine]",SmartCube drug classification / behavioral features,C57Bl/6 mice; highest dose 0.5 mg/kg body weight,anxiolytic-like behavior features
same,agonist type at α6/3β2β3 nAChR,α6/3β2β3 nAChR,potent full agonist
same,agonist type at α4β2 nAChR,α4β2 nAChR,potent full agonist
same,time spent at the bottom,[1]; [2],reduced the time spent at the bottom
same,time spent at the top,[1]; [2],increased the time spent at the top
same,freezing response,[1]; 1 and 10 mg/L,no freezing response
same,total distance traveled,[1]; 1 and 10 mg/L,decreased total distance traveled
"C1=CCC(c2cccnc2)NC1 (racemic) [Anatabine, (±)-Anatabine]",SmartCube drug classification / behavioral features,C57Bl/6 mice; all doses tested,no detectable effect
same,EC50,α6/3β2β3 nAChR,3.6 ± 0.3 µM
same,"partial activation of α6-containing nAChRs, % of nicotine",α6/3β2β3 nAChR; preliminary data,approximately 67%
same,"% of the full receptor activity, α6/3β2β3 nAChR","α6/3β2β3 nAChR; preliminary, data not shown",~70%
same,"% of the full receptor activity, α4β2 nAChR","α4β2 nAChR; preliminary, data not shown",~60%
same,total distance travelled,[1]; 0.3 and 10 mg/L,reduced
same,freezing time,[1]; only at 0.3 mg/L,increased
same,time spent at the bottom,[1]; [3],reduced the time spent at the bottom
same,time spent at the top,[1]; [3],increased the time spent at the top
"CN1C(=O)CC[C@H]1c1cccnc1 [Cotinine, (-)-cotinine]",SmartCube drug classification / behavioral features,C57Bl/6 mice; all doses tested,no detectable effect
same,EC50,"α6/3β2β3 nAChR; mean ± S.D., read-out: α6/3β2β3 EC50",> 100 µM
same,EC50,α4β2 nAChR; mean ± S.D.,> 100 µM
same,freezing time,[1]; 100 mg/L,without affecting their freezing time
same,total distance traveled,[1]; 100 mg/L,reduced
same,time spent at the bottom,"[1]; 100 mg/kg, 20 min treatment",spent less time at the bottom
same,time spent at the top,"[1]; any doses (30, 100, and 300 mg/L)",not affected
same,time spent at the bottom,[1]; other concentrations (30 and 300 mg/L),no effect
same,"concentration inducing anxiolytic-like effect, fold higher than nicotine",[1]; zebrafish,100 fold
